Reference: paper PMC9779571, “Guanidine Derivatives Containing the Chalcone Skeleton Are Potent Antiproliferative Compounds against Human Leukemia Cells” (International Journal of Molecular Sciences, 2022)

Tests used:
U-937 cells = experiment: MTT cytotoxicity assay, U-937; type: cell-based; settings: Homo sapiens, U-937, 72 h, means ± SEM
Excerpt: U-937, HL-60, MOLT-3, NALM-6, and SK-MEL-1 cells were from DSMZ (German Collection of Microorganisms and Cell Cultures, Braunschweig, Germany). U-937/Bcl-2 cells were kindly provided by Dr. Jacqueline Bréard (INSERM U749, Faculté de Pharmacie Paris-Sud, Châtenay-Malabry, France). The U-937 is a pro-monocytic, human promyelocytic leukemia cell line that was isolated from a histiocytic lymphoma. HL-60 is a human acute myeloid leukemia cell line. MOLT-3 is a human acute lymphoblastic leukemia cell line. NALM-6 is a human B cell precursor leukemia. SK-MEL-1 is a human melanoma cell line growing singly or in clumps (occasional giant, polynucleated cell) in suspension. Cells were cultured in RPMI 1640 medium containing 10% (v/v) heat-inactivated fetal bovine serum, 100 μg/mL streptomycin, and 100 U/mL penicillin, incubated at 37 °C in a humidified atmosphere containing 5% CO2 as described. The doubling times of the cell lines were 24 h in HL-60, 30 h in U-937, U-937/Bcl-2, 40 h in MOLT-3 and NALM-6, and several days in SK-MEL-1 cells. Human peripheral blood mononuclear cells (PBMC) were isolated from heparin-anticoagulated blood of healthy volunteers by centrifugation with Ficoll-Paque Plus (GE Healthcare Bio-Sciences AB, Uppsala, Sweden). PBMC were also stimulated with phytohemagglutinin (2 µg/mL) for 48 h before the experimental treatment. The trypan blue exclusion method was used for counting the cells by a hemocytometer with 95% viability in all the experiments. Compounds were dissolved in dimethyl sulfoxide (DMSO) and kept under dark conditions at 25 °C. […] The cytotoxicity of the synthetic compounds was evaluated by colorimetric 3-(4,5-dimethyl-2-thiazolyl-)-2,5-diphenyl-2H-tetrazolium bromide (MTT) assay as previously described. Briefly, cells (5000 per well) were incubated with increasing concentrations of compounds for 72 h into a 96-well plate. Then, the supernatants were removed and 0.5 mg/mL MTT was added and incubated for 4 h at 37 °C. Sodium dodecyl sulfate (10% w/v) in 0.05 M HCl was added to solubilize the reaction products and the absorbance was measured at 570 nm with a reference wavelength of […] using an ELISA reader (Bio-Rad, Hercules, CA, USA). The IC50 values (concentrations inducing a 50% inhibition of cell viability) were determined graphically for each experiment by a nonlinear regression using the curve fitting routine implemented within the software Prism 5.0 (GraphPad, La Jolla, CA, USA).

[1] = test system: six human cancer cell lines; experiment: MTT cytotoxicity assay, all cell lines assayed (summary statements); type: cell-based; settings: Homo sapiens; range over the six cell lines, 72 h
Excerpt: U-937, HL-60, MOLT-3, NALM-6, and SK-MEL-1 cells were from DSMZ (German Collection of Microorganisms and Cell Cultures, Braunschweig, Germany). U-937/Bcl-2 cells were kindly provided by Dr. Jacqueline Bréard (INSERM U749, Faculté de Pharmacie Paris-Sud, Châtenay-Malabry, France). The U-937 is a pro-monocytic, human promyelocytic leukemia cell line that was isolated from a histiocytic lymphoma. HL-60 is a human acute myeloid leukemia cell line. MOLT-3 is a human acute lymphoblastic leukemia cell line. NALM-6 is a human B cell precursor leukemia. SK-MEL-1 is a human melanoma cell line growing singly or in clumps (occasional giant, polynucleated cell) in suspension. Cells were cultured in RPMI 1640 medium containing 10% (v/v) heat-inactivated fetal bovine serum, 100 μg/mL streptomycin, and 100 U/mL penicillin, incubated at 37 °C in a humidified atmosphere containing 5% CO2 as described. […] The cytotoxicity of the synthetic compounds was evaluated by colorimetric 3-(4,5-dimethyl-2-thiazolyl-)-2,5-diphenyl-2H-tetrazolium bromide (MTT) assay as previously described. […] Sodium dodecyl sulfate (10% w/v) in 0.05 M HCl was added to solubilize the reaction products and the absorbance was measured at 570 nm with a reference wavelength of […] using an ELISA reader (Bio-Rad, Hercules, CA, USA). […]

With `Cc1ccc(S(=O)(=O)NC(=Nc2ccc(/C=C/C(=O)c3c(O)cccc3OCc3ccccc3)cc2)N2CCN(C)CC2)cc1` [Compound 6f] the IC50 (U-937 cells) was 1.6 ± 0.6 µM and the IC50 [1] was 1.5 to 4.5 µM.
